This passage reports Kd results from article PMC10988713 (FEBS Open Bio, 2024).

As a reminder, the Kd is the free concentration of one partner at which half of the binding sites on the other are occupied at equilibrium, for simple one-to-one binding.

The target of assay [1] is T1, RnMFE1 (Rattus norvegicus, UniProt P07896).
T1 construct: gene Ehhadh
The assay can be described thus: stopped-flow NADH formation, kobs vs substrate. The settings on record: 1 mM NAD+, pH 9.0, 50 mM Tris, 50 mM KCl, room temperature; coupled ECH and HAD reactions of the same enzyme. The assay is classed as biochemical. From the text: stopped-flow NADH formation, kobs vs substrate on RnMFE1

The target in assay [2] is T1, RnMFE1. Briefly: stopped-flow NADH fluorescence, koff/kon. The assay is classed as binding. From the text: (§1) stopped-flow NADH fluorescence, koff/kon on RnMFE1
Assay [3] concerns the target T2, RnMFE1 (Rattus norvegicus, UniProt P07896, E123A).
T2 construct: gene Ehhadh
Briefly: stopped-flow NADH fluorescence, koff/kon. Format: binding.
Excerpt: as §1

Assay [4] has as its target T3, HsHAD (Homo sapiens, UniProt Q16836).
T3 construct: gene HADH; N-terminal His6 tag in pET28a, E. coli BL21(DE3) pLysS, dimer of 35 kDa subunits
T3 sequence (Q16836 13-314): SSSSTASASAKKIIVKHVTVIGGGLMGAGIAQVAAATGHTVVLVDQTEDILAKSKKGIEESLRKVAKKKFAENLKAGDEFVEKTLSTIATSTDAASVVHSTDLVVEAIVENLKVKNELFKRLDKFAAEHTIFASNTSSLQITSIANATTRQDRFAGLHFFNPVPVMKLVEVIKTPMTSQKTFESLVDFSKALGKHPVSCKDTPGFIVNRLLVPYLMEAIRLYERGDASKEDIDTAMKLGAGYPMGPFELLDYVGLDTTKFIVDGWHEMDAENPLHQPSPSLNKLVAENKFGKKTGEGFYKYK
Briefly: stopped-flow NADH fluorescence, koff/kon. The assay is classed as binding. The text has this:
stopped-flow NADH fluorescence, koff/kon on HsHAD

For assay [5], the target named is T4, BCDE (Rattus norvegicus, UniProt P07896).
T4 construct: gene Ehhadh; truncated RnMFE1 from Ala260 (ASGQ) to the C-terminus, without domain A (ECH part); N-terminal His6 tag, E. coli BL21(DE3) pLysS
T4 sequence (P07896 260-722): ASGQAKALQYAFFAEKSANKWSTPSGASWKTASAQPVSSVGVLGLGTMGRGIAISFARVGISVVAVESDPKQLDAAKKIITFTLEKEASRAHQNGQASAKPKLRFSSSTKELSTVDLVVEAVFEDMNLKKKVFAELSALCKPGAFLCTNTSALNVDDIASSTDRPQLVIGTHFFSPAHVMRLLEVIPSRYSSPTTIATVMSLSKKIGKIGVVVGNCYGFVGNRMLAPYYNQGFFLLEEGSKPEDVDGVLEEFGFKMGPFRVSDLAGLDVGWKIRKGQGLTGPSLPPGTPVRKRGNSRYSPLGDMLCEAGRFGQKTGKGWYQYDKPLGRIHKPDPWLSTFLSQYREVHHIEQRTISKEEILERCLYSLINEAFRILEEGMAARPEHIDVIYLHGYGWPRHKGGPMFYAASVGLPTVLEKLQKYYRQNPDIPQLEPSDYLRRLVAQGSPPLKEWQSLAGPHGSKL
The assay can be described thus: stopped-flow NADH fluorescence, koff/kon. Format: binding. From the text: stopped-flow NADH fluorescence, koff/kon on BCDE

In assay [6] the target is T3, HsHAD. Briefly: stopped-flow tryptophan fluorescence, koff/kon. Format: binding. From the text: stopped-flow tryptophan fluorescence, koff/kon on HsHAD
Assay [7] has as its target T1, RnMFE1. The assay can be described thus: stopped-flow tryptophan fluorescence, koff/kon. Format: binding. From the text: (§2) stopped-flow tryptophan fluorescence, koff/kon on RnMFE1
Assay [8] concerns the target T2, RnMFE1. The assay can be described thus: stopped-flow tryptophan fluorescence, koff/kon. Format: binding.
Excerpt: as §2

Assay [9] deals with T4, BCDE. Briefly: stopped-flow tryptophan fluorescence, koff/kon. The assay is classed as binding. From the text: stopped-flow tryptophan fluorescence, koff/kon on BCDE

T1 sequence (P07896 whole entry): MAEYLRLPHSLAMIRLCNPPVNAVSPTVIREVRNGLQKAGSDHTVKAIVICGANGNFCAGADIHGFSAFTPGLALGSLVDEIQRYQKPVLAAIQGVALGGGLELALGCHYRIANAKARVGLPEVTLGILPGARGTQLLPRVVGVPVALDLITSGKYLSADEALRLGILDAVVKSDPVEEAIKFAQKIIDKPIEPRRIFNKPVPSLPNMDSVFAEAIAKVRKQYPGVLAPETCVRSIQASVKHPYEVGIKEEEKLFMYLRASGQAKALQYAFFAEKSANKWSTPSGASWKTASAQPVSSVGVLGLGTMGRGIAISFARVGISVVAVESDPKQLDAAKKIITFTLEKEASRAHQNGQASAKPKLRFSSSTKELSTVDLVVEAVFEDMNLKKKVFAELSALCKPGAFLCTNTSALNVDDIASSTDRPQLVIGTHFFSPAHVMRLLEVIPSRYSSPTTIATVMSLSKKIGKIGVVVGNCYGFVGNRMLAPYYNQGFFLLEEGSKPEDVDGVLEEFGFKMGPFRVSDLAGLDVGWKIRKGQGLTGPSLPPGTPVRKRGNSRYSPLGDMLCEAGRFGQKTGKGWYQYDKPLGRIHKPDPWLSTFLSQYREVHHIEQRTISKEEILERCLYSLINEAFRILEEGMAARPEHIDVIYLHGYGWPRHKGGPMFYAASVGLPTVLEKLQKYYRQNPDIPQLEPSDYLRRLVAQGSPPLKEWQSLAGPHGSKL
T2 sequence (P07896 whole entry E123A): as the sequence (P07896 whole entry) above, with E123A counted along it

In the case of `C/C=C/C(=O)SCCNC(=O)CCNC(=O)[C@H](O)C(C)(C)COP(=O)(O)OP(=O)(O)OC[C@H]1O[C@@H](n2cnc3c(N)ncnc32)[C@H](O)[C@@H]1OP(=O)(O)O` [2E‐butenoyl‐CoA], on RnMFE1 [1], binding was put at a Kd of 1.9 ± 0.1 µM.
Regarding `NC(=O)C1=CN([C@@H]2O[C@H](COP(=O)(O)OP(=O)(O)OC[C@H]3O[C@@H](n4cnc5c(N)ncnc54)[C@H](O)[C@@H]3O)[C@@H](O)[C@H]2O)C=CC1` [NADH], the Kd is 5 µM on RnMFE1 [2], 7.5 µM on RnMFE1 [3], 7 µM on HsHAD [4] and 5.7 µM on BCDE [5].
Take `NC(=O)c1ccc[n+]([C@@H]2O[C@H](COP(=O)(O)OP(=O)(O)OC[C@H]3O[C@@H](n4cnc5c(N)ncnc54)[C@H](O)[C@@H]3O)[C@@H](O)[C@H]2O)c1` [NAD^+]: the Kd on HsHAD [6] stood at 6 µM; on RnMFE1 [7] it was 7.6 µM; on RnMFE1 [8] it was 8 µM; at BCDE [9], 7.5 µM.
